Columns and labels:
[1] = target: T1, human PRS protein (His-Avi-hEPRS (998-1512)) (Homo sapiens, UniProt P07814); test: PRS inhibitory activity ([32P]pyrophosphate exchange enzyme assay); type: biochemical; conditions: 300 nM test compound; read-out: inhibitory rate (%) of PRS
T1 construct: to construct His-Avi-hEPRS (998-1512) expression plasmid; His tag (N); Avi tag (N); TEV cleavage site (ENLYFQG, then S; inferred from the forward primer hEPRS-TEV-NheF) (N); made in house; host or cells: E. coli BL21(DE3)
T1 sequence (P07814 998-1512 limits assumed): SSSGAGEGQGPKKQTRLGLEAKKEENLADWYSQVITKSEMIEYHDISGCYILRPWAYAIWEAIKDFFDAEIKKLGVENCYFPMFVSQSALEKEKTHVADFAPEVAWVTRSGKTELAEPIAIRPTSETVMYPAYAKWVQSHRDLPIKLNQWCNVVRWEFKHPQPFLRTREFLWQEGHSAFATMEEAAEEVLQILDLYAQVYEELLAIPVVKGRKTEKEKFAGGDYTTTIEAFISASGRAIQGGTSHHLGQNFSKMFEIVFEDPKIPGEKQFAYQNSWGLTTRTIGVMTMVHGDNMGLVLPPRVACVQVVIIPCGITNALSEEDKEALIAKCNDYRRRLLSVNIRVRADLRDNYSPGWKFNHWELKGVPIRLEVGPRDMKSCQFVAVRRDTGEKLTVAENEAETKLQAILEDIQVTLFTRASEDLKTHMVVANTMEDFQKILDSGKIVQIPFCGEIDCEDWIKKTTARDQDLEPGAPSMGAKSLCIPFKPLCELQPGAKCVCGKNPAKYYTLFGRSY
Method in brief: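 Compound was pre-incubated 60 min with 40 nM His-Avi-hEPRS (998-1512) (stock, E. coli-expressed) in Tris pH 7.5/KCl/DTT/Tween/MgCl2. Reaction began with substrate mix containing 300 μM ATP, 160 μM L-proline, 400 μM [32P]pyrophosphate (stock levels) and ran 30 min at room temperature. Charcoal-bound radioactivity was counted; inhibition was relative to no-reaction control.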

[2] = system: human ovarian cancer cells A2780; test: proliferation inhibitory activity against human ovarian cancer cell A2780 (CellTiter-Glo); type: cell-based; conditions: A2780, 72 h, 1 μM test compound, 3 days of culture, read-out: proliferation inhibitory rate (%) of A2780 cells
Method in brief: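 A2780 cells in RPMI-1640 with 10% FBS, compound added the day after seeding and cultured 3 days. Viability by CellTiter-Glo luminescence. Inhibition (%) calculated with cell-free wells as 100% inhibition.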

inhibition at 0.3 µM [1] [%] | SMILES | inhibition at 1 µM [2] [%]
100 | Cc1cc(N2CC[C@@](C#N)(C3CC3)C2=O)cc(C(=O)NCc2cc(F)cc(-c3ccc(=O)n(C)c3)c2)n1 [Example 169, 4-((3S)-3-cyano-3-cyclopropyl-2-oxopyrrolidin-1-yl)-N-(3-fluoro-5-(1-methyl-6-oxo-1,6-dihydropyridin-3-yl)benzyl)-6-methylpyridine-2-carboxamide] | 98
101 | Cc1cc(N2CC[C@@](C#N)(C3CC3)C2=O)cc(C(=O)NCc2cc(F)cc(-c3cnn(C4CCOCC4)c3)c2)n1 [Example 182, 4-((3S)-3-cyano-3-cyclopropyl-2-oxopyrrolidin-1-yl)-N-(3-fluoro-5-(1-(tetrahydro-2H-pyran-4-yl)-1H-pyrazol-4-yl)benzyl)-6-methylpyridine-2-carboxamide] | 97
99 | Cc1cc(N2CC[C@@](C#N)(C3CC3)C2=O)cc(C(=O)NCc2cc(F)cc(-c3cnc(C)s3)c2)n1 [Example 187, 4-((3S)-3-cyano-3-cyclopropyl-2-oxopyrrolidin-1-yl)-N-(3-fluoro-5-(2-methyl-1,3-thiazol-5-yl)benzyl)-6-methylpyridine-2-carboxamide] | 65
96 | Cc1cc(-c2cc(F)cc(CNC(=O)c3cc(N4CC[C@@](C#N)(C5CC5)C4=O)cc(C)n3)c2)cnn1 [Example 207, 4-((3S)-3-cyano-3-cyclopropyl-2-oxopyrrolidin-1-yl)-N-(3-fluoro-5-(6-methylpyridazin-4-yl)benzyl)-6-methylpyridine-2-carboxamide] | 59
100 | Cc1cc(-c2cc(F)cc(CNC(=O)c3cc(N4CC[C@@](C#N)(C5CC5)C4=O)cc(C)n3)c2)ccn1 [Example 209, 4-((3S)-3-cyano-3-cyclopropyl-2-oxopyrrolidin-1-yl)-N-(3-fluoro-5-(2-methylpyridin-4-yl)benzyl)-6-methylpyridine-2-carboxamide] | 80

More lines, now with the values behind:

SMILES | inhibition at 0.3 µM [1] [%] | inhibition at 1 µM [2] [%]
Cn1cc(-c2cc(F)cc(CNC(=O)c3nccc4nc(C5CCCC5)n(CC(N)=O)c34)c2)cn1 [Example 128, 3-(2-amino-2-oxoethyl)-2-cyclopentyl-N-(3-fluoro-5-(1-methyl-1H-pyrazol-4-yl)benzyl)-3H-imidazo[4,5-c]pyridine-4-carboxamide] | 102 | 97
Cn1cc(-c2cc(F)cc(CNC(=O)c3nccc4nc(C5CCCC5)n(CC#N)c34)c2)cn1 [Example 131, 3-(cyanomethyl)-2-cyclopentyl-N-(3-fluoro-5-(1-methyl-1H-pyrazol-4-yl)benzyl)-3H-imidazo[4,5-c]pyridine-4-carboxamide] | 101 | 93
Cc1cc(N2CCC(C)(C)C2=O)cc(C(=O)NCc2cc(F)cc(-c3cnn(C)c3)c2)n1 [Example 165, 4-(3,3-dimethyl-2-oxopyrrolidin-1-yl)-N-(3-fluoro-5-(1-methyl-1H-pyrazol-4-yl)benzyl)-6-methylpyridine-2-carboxamide] | 100 | 75
Cc1cc(N2CC[C@@](C#N)(C3CC3)C2=O)cc(C(=O)NCc2cc(C#N)cc(-c3cnn(C)c3)c2)n1 [Example 167, 4-((3S)-3-cyano-3-cyclopropyl-2-oxopyrrolidin-1-yl)-N-(3-cyano-5-(1-methyl-1H-pyrazol-4-yl)benzyl)-6-methylpyridine-2-carboxamide] | 99 | 98
Cc1cc(N2CC[C@@](C#N)(C3CC3)C2=O)cc(C(=O)NCc2cc(F)cc(-c3cnn(C4CC4)c3)c2)n1 [Example 168, 4-((3S)-3-cyano-3-cyclopropyl-2-oxopyrrolidin-1-yl)-N-(3-(1-cyclopropyl-1H-pyrazol-4-yl)-5-fluorobenzyl)-6-methylpyridine-2-carboxamide] | 100 | 98

Source: US10774083B2, “Heterocyclic amide compound” (TAKEDA PHARMACEUTICAL COMPANY LIMITED, priority 2016, dated 2020)
